Test results taken from patent US6737383B1, “Herbicidal oxadiazolidines” (priority 1999, dated 2004).

Tests used:
[1] = system: morningglory; assay: Test B pre/postemergence morningglory; assay type: in vivo, Ipomoea hederacea
How it was run: (§1)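 Test chemicals in a non-phytotoxic solvent mixture with surfactant were sprayed preemergence onto planted seeds and postemergence onto plants 2 to 18 cm tall (1- to 4-leaf stage). After twelve to sixteen days in a greenhouse, injury was visually rated against untreated controls from 0 (no effect) to 10 (complete control).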

[2] = system: pigweed; assay: Test B pre/postemergence pigweed; assay type: in vivo, Amaranthus retroflexus
How it was run: as §1

[3] = system: wild oat; assay: Test B pre/postemergence wild oat; assay type: in vivo, Avena fatua
How it was run: as §1

[4] = Postemergence, Rate 1000 g/ha, scale 0 to 10 (0 no effect, 10 complete control)
[5] = Preemergence, Rate 125 g/ha, scale 0 to 10 (0 no effect, 10 complete control)
[6] = Preemergence, Rate 250 g/ha, scale of 0 to 10 where 0 is no effect and 10 is complete control
[7] = Preemergence, Rate 500 g/ha, scale 0 (no effect) to 10 (complete control)
[8] = Rate 125 g/ha, Postemergence, scale 0 to 10, 0 no effect, 10 complete control
[9] = Rate 500 g/ha, Postemergence, 0 to 10 scale (0 no effect, 10 complete control)
[10] = Rate 1000 g/ha, Preemergence, scale 0 to 10 (0 no effect, 10 complete control)
[11] = Postemergence, Rate 250 g/ha, scale 0 to 10, 0 no effect, 10 complete control
[12] = Preemergence, Rate 62 g/ha, scale of 0 to 10 where 0 is no effect and 10 is complete control
[13] = Preemergence, Rate 500 g/ha, scale of 0 to 10 where 0 is no effect and 10 is complete control
[14] = Rate 62 g/ha, Postemergence, scale of 0 to 10 where 0 is no effect and 10 is complete control
[15] = Rate 125 g/ha, Postemergence, scale 0 to 10
[16] = Rate 125 g/ha, Preemergence, scale of 0 to 10 where 0 is no effect and 10 is complete control
[17] = Rate 500 g/ha, Postemergence, scale 0 to 10, 0 no effect, 10 complete control
[18] = Postemergence, Rate 62 g/ha, scale 0 to 10, 0 is no effect, 10 is complete control
[19] = Preemergence, Rate 62 g/ha, scale 0 to 10 (0 no effect, 10 complete control)
[20] = Postemergence, Rate 125 g/ha, scale of 0 to 10 where 0 is no effect and 10 is complete control
[21] = Preemergence, Rate 125 g/ha, 0 is no effect, 10 is complete control
[22] = Preemergence, Rate 250 g/ha, scale 0 to 10, 0 is no effect, 10 is complete control
[23] = Preemergence, Rate 500 g/ha, scale 0 to 10 (0 no effect, 10 complete control)
[24] = Rate 250 g/ha, Postemergence, scale 0 to 10, 0 is no effect, 10 is complete control
[25] = Rate 500 g/ha, Postemergence, scale 0 to 10
[26] = Preemergence, Rate 31 g/ha, visual rating, scale 0 to 10 (0 no effect, 10 complete control)
[27] = Preemergence, Rate 62 g/ha, scale 0 to 10, 0 is no effect, 10 is complete control
[28] = Rate 31 g/ha, Postemergence, scale 0 to 10

CC(C)N(C(=O)n1oc(=O)n(-c2ccc(Cl)cc2Cl)c1=O)c1ccc(F)cc1 [Compound 7, 4-(2,4-Dichlorophenyl)-N-(4-fluorophenyl)-N-(1-methylethyl)-3,5-dioxo-1,2,4-oxadiazolidine-2-carboxamide]
Morningglory plant response rating [1, 4]: 3 | Plant response rating, Morningglory [1, 5]: 0 | Plant response rating, Morningglory [1, 6]: 0 | Morningglory plant response rating [1, 7]: 0 | Morningglory plant response rating [1, 8]: 0 | Morningglory plant response rating [1, 9]: 0 | Plant response rating, Morningglory [1, 10]: 0 | Redroot pigweed plant response rating [2, 11]: 0 | Redroot pigweed plant response rating [2, 4]: 0 | Plant response rating, Redroot pigweed [2, 5]: 0 | Plant response rating, Redroot pigweed [2, 6]: 0 | Redroot pigweed plant response rating [2, 7]: 0 | Redroot pigweed plant response rating [2, 8]: 0 | Redroot pigweed plant response rating [2, 9]: 0 | Plant response rating, Redroot pigweed [2, 10]: 2 | Wild oats plant response rating [3, 11]: 0 | Wild oats plant response rating [3, 4]: 3 | Plant response rating, Wild oats [3, 5]: 0 | Plant response rating, Wild oats [3, 6]: 0 | Wild oats plant response rating [3, 7]: 0 | Wild oats plant response rating [3, 8]: 0 | Plant response rating, Wild oats [3, 10]: 0

CC(C)N(C(=O)n1oc(=O)n(-c2cccnc2)c1=O)c1ccc(F)cc1 [Compound 234]
Morningglory plant response rating [1, 12]: 0 | Morningglory plant response rating [1, 6]: 0 | Plant response rating, Morningglory [1, 13]: 0 | Morningglory plant response rating [1, 14]: 0 | Morningglory plant response rating [1, 15]: 0 | Morningglory plant response rating [1, 16]: 0 | Plant response rating (0 to 10; 0 is no effect, 10 is complete control), Morningglory ([1]; Rate 250 g/ha, Postemergence): 1 | Morningglory plant response rating [1, 17]: 2 | Redroot pigweed plant response rating [2, 12]: 0 | Redroot pigweed plant response rating [2, 6]: 0 | Plant response rating, Redroot pigweed [2, 13]: 0 | Redroot pigweed plant response rating [2, 14]: 0 | Redroot pigweed plant response rating [2, 15]: 0 | Redroot pigweed plant response rating [2, 16]: 0 | Plant response rating (0 to 10; 0 is no effect, 10 is complete control), Redroot pigweed ([2]; Rate 250 g/ha, Postemergence): 0 | Redroot pigweed plant response rating [2, 17]: 0 | Wild oats plant response rating [3, 12]: 0 | Wild oats plant response rating [3, 6]: 0 | Plant response rating, Wild oats [3, 13]: 0 | Wild oats plant response rating [3, 14]: 0 | Wild oats plant response rating [3, 15]: 0 | Wild oats plant response rating [3, 16]: 0 | Plant response rating (0 to 10; 0 is no effect, 10 is complete control), Wild oats ([3]; Rate 250 g/ha, Postemergence): 0 | Wild oats plant response rating [3, 17]: 0

Cc1cccc(C(C)C)c1-n1c(=O)on(C(=O)N(c2ccc(F)cc2)C(C)C)c1=O [Compound 65]
Morningglory plant response rating [1, 18]: 0 | Morningglory plant response rating [1, 11]: 1 | Morningglory plant response rating [1, 19]: 0 | Plant response rating, Morningglory [1, 5]: 0 | Plant response rating, Morningglory [1, 6]: 0 | Morningglory plant response rating [1, 7]: 0 | Morningglory plant response rating [1, 8]: 1 | Morningglory plant response rating [1, 17]: 2 | Redroot pigweed plant response rating [2, 18]: 0 | Redroot pigweed plant response rating [2, 11]: 0 | Redroot pigweed plant response rating [2, 19]: 0 | Plant response rating, Redroot pigweed [2, 5]: 0 | Plant response rating, Redroot pigweed [2, 6]: 0 | Redroot pigweed plant response rating [2, 7]: 3 | Redroot pigweed plant response rating [2, 8]: 0 | Redroot pigweed plant response rating [2, 17]: 0 | Wild oats plant response rating [3, 18]: 0 | Wild oats plant response rating [3, 11]: 0 | Wild oats plant response rating [3, 19]: 0 | Plant response rating, Wild oats [3, 5]: 0 | Plant response rating, Wild oats [3, 6]: 0 | Wild oats plant response rating [3, 7]: 0 | Wild oats plant response rating [3, 8]: 0 | Wild oats plant response rating [3, 17]: 0

CCN(Cc1ccccc1)C(=O)n1oc(=O)n(-c2c(C)cccc2C)c1=O [Compound 70]
Morningglory plant response rating [1, 18]: 0 | Morningglory plant response rating [1, 11]: 0 | Morningglory plant response rating [1, 19]: 0 | Plant response rating, Morningglory [1, 5]: 0 | Plant response rating, Morningglory [1, 6]: 0 | Morningglory plant response rating [1, 7]: 0 | Morningglory plant response rating [1, 8]: 0 | Morningglory plant response rating [1, 17]: 0 | Redroot pigweed plant response rating [2, 18]: 0 | Redroot pigweed plant response rating [2, 11]: 0 | Redroot pigweed plant response rating [2, 19]: 0 | Plant response rating, Redroot pigweed [2, 5]: 0 | Plant response rating, Redroot pigweed [2, 6]: 0 | Redroot pigweed plant response rating [2, 7]: 0 | Redroot pigweed plant response rating [2, 8]: 0 | Redroot pigweed plant response rating [2, 17]: 0 | Wild oats plant response rating [3, 18]: 0 | Wild oats plant response rating [3, 11]: 0 | Wild oats plant response rating [3, 19]: 0 | Plant response rating, Wild oats [3, 5]: 0 | Plant response rating, Wild oats [3, 6]: 0 | Wild oats plant response rating [3, 7]: 0 | Wild oats plant response rating [3, 8]: 0 | Wild oats plant response rating [3, 17]: 0

CCN(CC)C(=O)n1oc(=O)n(Cc2ccccc2)c1=O [Compound 152]
Morningglory plant response rating [1, 20]: 0 | Morningglory plant response rating [1, 19]: 0 | Morningglory plant response rating (0 to 10 scale) [1, 21]: 0 | Morningglory plant response rating [1, 22]: 0 | Morningglory plant response rating [1, 23]: 0 | Morningglory plant response rating [1, 14]: 0 | Plant response rating, Morningglory [1, 24]: 0 | Morningglory plant response rating [1, 25]: 0 | Redroot pigweed plant response rating [2, 20]: 0 | Redroot pigweed plant response rating [2, 19]: 0 | Redroot pigweed plant response rating (0 to 10 scale) [2, 21]: 0 | Redroot pigweed plant response rating [2, 22]: 0 | Redroot pigweed plant response rating [2, 23]: 0 | Redroot pigweed plant response rating [2, 14]: 0 | Plant response rating, Redroot pigweed [2, 24]: 0 | Redroot pigweed plant response rating [2, 25]: 0 | Wild oats plant response rating [3, 19]: 0 | Wild oats plant response rating (0 to 10 scale) [3, 21]: 0 | Wild oats plant response rating [3, 22]: 0 | Wild oats plant response rating [3, 23]: 0 | Wild oats plant response rating [3, 14]: 0 | Plant response rating, Wild oats [3, 24]: 0 | Wild oats plant response rating [3, 25]: 0

Cc1cc(C)c(-n2c(=O)on(C(=O)N(c3ccc(Cl)cc3)C(C)C)c2=O)c(C)c1 [Compound 61]
Morningglory plant response rating [1, 18]: 2 | Morningglory plant response rating [1, 11]: 4 | Morningglory plant response rating [1, 19]: 0 | Plant response rating, Morningglory [1, 5]: 0 | Plant response rating, Morningglory [1, 6]: 0 | Morningglory plant response rating [1, 7]: 0 | Morningglory plant response rating [1, 8]: 2 | Morningglory plant response rating [1, 17]: 8 | Redroot pigweed plant response rating [2, 18]: 1 | Redroot pigweed plant response rating [2, 11]: 3 | Redroot pigweed plant response rating [2, 19]: 0 | Plant response rating, Redroot pigweed [2, 5]: 0 | Plant response rating, Redroot pigweed [2, 6]: 1 | Redroot pigweed plant response rating [2, 7]: 3 | Redroot pigweed plant response rating [2, 8]: 2 | Redroot pigweed plant response rating [2, 17]: 4 | Wild oats plant response rating [3, 18]: 0 | Wild oats plant response rating [3, 11]: 0 | Wild oats plant response rating [3, 19]: 0 | Plant response rating, Wild oats [3, 5]: 0 | Plant response rating, Wild oats [3, 6]: 0 | Wild oats plant response rating [3, 7]: 3 | Wild oats plant response rating [3, 8]: 0 | Wild oats plant response rating [3, 17]: 0

COc1ccccc1-n1c(=O)on(C(=O)N(c2ccc(F)cc2F)C(C)C)c1=O [Compound 31]
Morningglory plant response rating [1, 18]: 0 | Morningglory plant response rating [1, 11]: 3 | Morningglory plant response rating [1, 26]: 0 | Plant response rating, Morningglory [1, 27]: 0 | Plant response rating, Morningglory [1, 5]: 0 | Plant response rating, Morningglory [1, 6]: 0 | Morningglory plant response rating [1, 28]: 0 | Morningglory plant response rating [1, 8]: 1 | Redroot pigweed plant response rating [2, 18]: 0 | Redroot pigweed plant response rating [2, 11]: 0 | Redroot pigweed plant response rating [2, 26]: 0 | Plant response rating, Redroot pigweed [2, 27]: 0 | Plant response rating, Redroot pigweed [2, 5]: 0 | Plant response rating, Redroot pigweed [2, 6]: 3 | Redroot pigweed plant response rating [2, 28]: 0 | Redroot pigweed plant response rating [2, 8]: 0 | Wild oats plant response rating [3, 18]: 0 | Wild oats plant response rating [3, 11]: 0 | Wild oats plant response rating [3, 26]: 0 | Plant response rating, Wild oats [3, 5]: 2 | Plant response rating, Wild oats [3, 6]: 4 | Wild oats plant response rating [3, 8]: 0

CCc1ccc(N(C(=O)n2oc(=O)n(-c3ccccc3C)c2=O)C(C)C)cc1 [Compound 230]
Morningglory plant response rating [1, 12]: 0 | Morningglory plant response rating [1, 6]: 0 | Plant response rating, Morningglory [1, 13]: 2 | Morningglory plant response rating [1, 14]: 0 | Morningglory plant response rating [1, 15]: 2 | Morningglory plant response rating [1, 16]: 0 | Plant response rating (0 to 10; 0 is no effect, 10 is complete control), Morningglory ([1]; Rate 250 g/ha, Postemergence): 2 | Morningglory plant response rating [1, 17]: 7 | Redroot pigweed plant response rating [2, 12]: 0 | Redroot pigweed plant response rating [2, 6]: 0 | Plant response rating, Redroot pigweed [2, 13]: 0 | Redroot pigweed plant response rating [2, 14]: 0 | Redroot pigweed plant response rating [2, 15]: 0 | Redroot pigweed plant response rating [2, 16]: 0 | Plant response rating (0 to 10; 0 is no effect, 10 is complete control), Redroot pigweed ([2]; Rate 250 g/ha, Postemergence): 0 | Redroot pigweed plant response rating [2, 17]: 0 | Wild oats plant response rating [3, 12]: 0 | Wild oats plant response rating [3, 6]: 0 | Plant response rating, Wild oats [3, 13]: 0 | Wild oats plant response rating [3, 14]: 0 | Wild oats plant response rating [3, 15]: 0 | Wild oats plant response rating [3, 16]: 0 | Plant response rating (0 to 10; 0 is no effect, 10 is complete control), Wild oats ([3]; Rate 250 g/ha, Postemergence): 0 | Wild oats plant response rating [3, 17]: 0
